The results in this text go back to ChEMBL document CHEMBL1156004, “Pyrazolopyrimidines and pyrazolotriazines with potent activity against herpesviruses” (Bioorg Med Chem Lett, 2009).

pIC50: −log10 of the molar value. Some results are limits rather than exact numbers.

A short description of data set [1]: Cytotoxicity against african green monkey Vero cells. In kind it is cell-based. As to conditions: chlorocebus sabaeus.
Data set [2] can be described thus: Antiviral activity against HSV1 SC16 infected in african green monkey Vero cells by hybrid capture method. In kind it is functional, cell-based, Herpes simplex virus (type 1 / strain SC16). The settings on record: Human alphaherpesvirus 1, Vero.
A short description of data set [3]: Cmax in Sprague-Dawley rat at 1 mg/kg, iv and po after 30 mins. Also on record: dose 1 mg/kg, route oral. As to conditions: in vivo. In kind it is ADME, organism-based.
Another data set concerns Rattus norvegicus. Kind of data set: Volume of distribution in Sprague-Dawley rat at 1 mg/kg, iv and po. In kind it is ADME, organism-based. Set-up: dose 1 mg/kg, route oral. As to conditions: in vivo.
Data set [4] is described as follows: Half life in Sprague-Dawley rat at 1 mg/kg, iv and po. The format is ADME, organism-based. Also on record: dose 1 mg/kg, route oral. As to conditions: in vivo.
Data set [5] in a line: Oral bioavailability in Sprague-Dawley rat at 1 mg/kg. In kind it is ADME, organism-based. The settings on record: in vivo.

Broadly, the CC50 is the concentration giving 50% cytotoxicity. By pIC50 is commonly meant the IC50 on a negative log10 scale, so that one unit is a factor of ten. In turn, `Fc1ccc(-c2nn3c(NC4CCCC4)cccc3c2-c2ccnc(NC3CCCC3)n2)cc1` yielded a 50% cytotoxic concentration (CC50) in data set [1] above 160 µM. This molecule also gave a pIC50 in data set [2] of 6.59.
With `Fc1ccc(-c2nn3c(NC4CCCC4)cc(NC4CCCC4)cc3c2-c2ccnc(NC3CCCC3)n2)cc1`, the CC50 in data set [1] was above 40 µM. Moreover, in data set [2], the negative-log IC50 (pIC50) was 6.62.
The corresponding values for `COc1ccc(-c2nn3c(NC4CCCC4)cccc3c2-c2ccnc(NC3CCCC3)n2)cc1` are above 100 µM and 6.66.
The corresponding values for `c1cc(NC2CCCC2)n2nc(-c3ccc(OCC4CC4)cc3)c(-c3ccnc(NC4CCCC4)n3)c2c1` are above 40 µM and 6.77.
The Cmax is the peak of the concentration-time curve. One may read the half-life as the time needed for the level to fall by half in the phase considered. The term bioavailability denotes the share of a dose that reaches the circulation, judged against a reference dose that is usually intravenous. In data set [3], `Fc1ccc(-c2nn3c(NC4CCCC4)nccc3c2-c2ccnc(NC3CCCC3)n2)cc1` registered a Cmax of 300 nM. For the same molecule, in data set [1], the CC50 is above 40 µM. The Vd in the data set with Rattus norvegicus was 1.2 L/kg. In data set [2], this molecule showed a negative logarithm of the IC50 (pIC50) of 6.77. Besides, the half-life in data set [4] was 2.5 h. For the same molecule, the bioavailability in data set [5] is 24%.
The molecule `Clc1cccc(-c2nn3c(N4CCOCC4)nccc3c2-c2ccnc(NC3CCCC3)n2)c1` yielded a CC50 in data set [1] above 40 µM. Moreover, in data set [2], the pIC50 is 6.70.
The corresponding values for `c1ccc(-c2nn3c(NC4CCCC4)ccnc3c2-c2ccnc(NC3CCCC3)c2)cc1` are 14 µM and 6.52.
Regarding `Fc1ccc(-c2nn3c(NC4CCCC4)ccnc3c2-c2ccnc(NC3CCCC3)c2)cc1`, the CC50 in data set [1] amounted to 16 µM. Further, in data set [2], the pIC50 is 5.92.
As for `c1cc(-c2c(-c3ccc(OCC4CC4)cc3)nn3c(NC4CCCC4)nccc23)nc(NC2CCCC2)n1`, in data set [1], the half-maximal cytotoxic concentration (CC50) is above 40 µM. Besides, the pIC50 in data set [2] was 6.16.
The like results for `CCCCOc1ccc(-c2nn3c(NC4CCCC4)nccc3c2-c2ccnc(NC3CCCC3)n2)cc1` were, in that order, above 40 µM and 6.33.
The corresponding values for `c1ccc(-c2nn3c(NC4CCCC4)ncnc3c2-c2ccnc(NC3CCCC3)n2)cc1` are above 40 µM and 5.19.
The like results for `COc1ccc(-c2nn3c(NC4CCCC4)nccc3c2-c2ccnc(NC3CCCC3)n2)cc1` were, in that order, above 40 µM and 6.55.
For `CC(C)(C)Nc1nccc2c(-c3ccnc(NC4CCCC4)n3)c(-c3ccc(F)cc3)nn12`, the CC50 in data set [1] was above 40 µM. In addition, the pIC50 in data set [2] was 5.18.
The like results for `COCCNc1nccc2c(-c3ccnc(NC4CCCC4)n3)c(-c3cccc(Cl)c3)nn12` were, in that order, above 40 µM and 6.52.
The like results for `Fc1ccc(-c2nn3c(N4CCCC4)nccc3c2-c2ccnc(NC3CCCC3)n2)cc1` were, in that order, above 40 µM and 5.72.
Molecule `CC(C)COc1ccc(-c2nn3c(NC4CCCC4)nccc3c2-c2ccnc(NC3CCCC3)n2)cc1` displayed a 50% cytotoxic concentration (CC50) in data set [1] above 40 µM. Further, in data set [2], the negative-log IC50 (pIC50) is 6.21.
In data set [1], `COc1ccc(-c2nn3c(NC4CCCC4)ccnc3c2-c2ccnc(NC3CCCC3)c2)cc1` had a CC50 of 10 µM. In data set [2], the negative-log IC50 (pIC50) is 6.22.
`Oc1ccc(-c2nn3c(NC4CCCC4)nccc3c2-c2ccnc(NC3CCCC3)n2)cc1` gave a CC50 in data set [1] of 27 µM. The molecule further gave a negative-log IC50 (pIC50) in data set [2] of 5.40.
In turn, `COCCOc1ccc(-c2nn3c(NC4CCCC4)nccc3c2-c2ccnc(NC3CCCC3)n2)cc1` came in with a 50% cytotoxic concentration (CC50) in data set [1] above 40 µM. The pIC50 in data set [2] is 5.95.
In data set [1], `Clc1cccc(-c2nn3c(NC4CCCC4)nccc3c2-c2ccnc(NC3CCCC3)n2)c1` came in with a 50% cytotoxic concentration (CC50) above 40 µM. In data set [2], this molecule gave a pIC50 of 6.34.
In data set [1], `Fc1ccc(-c2nn3c(N4CCCCC4)nccc3c2-c2ccnc(NC3CCCC3)n2)cc1` yielded a CC50 above 40 µM. The pIC50 in data set [2] is 6.01.
The like results for `COc1ccc(-c2nn3c(NC4CCCC4)ccnc3c2-c2ccnc(NC3CCCC3)n2)cc1` were, in that order, 32 µM and 5.62.
Take `c1ccc(-c2nn3c(NC4CCCC4)nc(NC4CCCC4)nc3c2-c2ccnc(NC3CCCC3)c2)cc1`: the CC50 in data set [1] is above 40 µM. In addition, the pIC50 in data set [2] is 6.92.
The like results for `CCCOc1ccc(-c2nn3c(NC4CCCC4)nccc3c2-c2ccnc(NC3CCCC3)n2)cc1` were, in that order, above 20 µM and 6.27.
The like results for `c1ccc(-c2nn3c(NC4CCCC4)cccc3c2-c2ccnc(NC3CCCC3)n2)cc1` were, in that order, above 40 µM and 6.21.
In turn, `Nc1nc2c(ncn2COCCO)c(=O)[nH]1` [ACYCLOVIR] displayed a 50% cytotoxic concentration (CC50) in data set [1] above 200 µM. Also, the pIC50 in data set [2] is 6.41.
